Data: ChEMBL document CHEMBL5532682, “Recent advances of tryptanthrin and its derivatives as potential anticancer agents” (RSC Med Chem, 2024)

Key:
HeLa [1] = test: Antiproliferative activity against human HeLa cells incubated for 48 hrs; type: functional, cell-based
K562 [2] = test: Antiproliferative activity against human K562 cells; type: functional, cell-based
K562 [3] = test: Antiproliferative activity against human K562 cells incubated for 48 hrs; type: functional, cell-based; details: K562, 48 h
CT26 = test: Antiproliferative activity against mouse CT26 cells incubated for 48 hrs; type: functional, cell-based; details: CT26, 48 h
T-24 [4] = test: Antiproliferative activity against human T24 cells measured after 48 hrs by MTT assay; type: functional, cell-based; details: T-24, 48 h
[5] = Antiproliferative activity against human HL7702 cells measured after 48 hrs by MTT assay; type: toxicity, cell-based; details: HL7702 (L02) cells
MGC-803 = test: Antiproliferative activity against human MGC-803 cells measured after 48 hrs by MTT assay; type: functional, cell-based; details: MGC-803, 48 h
MCF7 = test: Antiproliferative activity against human MCF7 cells; type: functional, cell-based
SK-OV-3 = test: Antiproliferative activity against human SK-OV-3 cells assessed as inhibition of cell growth; type: functional, cell-based
HCT-116 = test: Antiproliferative activity against human HCT-116 cells measured after 48 hrs by MTT assay; type: functional, cell-based; details: HCT-116, 48 h
HepG2 [6] = test: Antiproliferative activity against human HepG2 cells measured after 48 hrs by MTT assay; type: functional, cell-based; details: HepG2, 48 h
A549 [7] = test: Antiproliferative activity against human A549 cells assessed as cell growth inhibition; type: functional, cell-based
HeLa [8] = test: Antiproliferative activity against human HeLa cells assessed as cell growth inhibition; type: functional, cell-based
HepG2 [9] = test: Antiproliferative activity against human HepG2 cells incubated by 48 hrs by MTT assay; type: functional, cell-based; details: HepG2, 48 h
PC-3 = test: Antiproliferative activity against human PC-3 cells incubated by 48 hrs by MTT assay; type: functional, cell-based; details: PC-3, 48 h
[10] = Antiproliferative activity against human HL7702 cells assessed as inhibition of cell viability; type: toxicity, cell-based; details: HL7702 (L02) cells
Bel-7402 = test: Antiproliferative activity against human Bel-7402 cells measured after 48 hrs by MTT assay; type: functional, cell-based; details: Bel-7402, 48 h
A549/CDDP = test: Antiproliferative activity against human A549/DDP cells assessed as inhibition of cell viability; type: functional, cell-based
A549 [11] = test: Antiproliferative activity against human A549 cells assessed as inhibition of cell viability; type: functional, cell-based
NCI/ADR-RES = test: Antiproliferative activity against human MCF7ADR cells; type: functional, cell-based
K562 [12] = test: Antiproliferative activity against human K562 cells incubated by 48 hrs by MTT assay; type: functional, cell-based; details: K562, 48 h
T-24 [13] = test: Antiproliferative activity against human T24 cells assessed as inhibition of cell growth; type: functional, cell-based
HepG2 [14] = test: Antiproliferative activity against human HepG2 cells assessed as inhibition of cell growth; type: functional, cell-based
A549 [15] = test: Antiproliferative activity against human A549 cells measured after 48 hrs by MTT assay; type: functional, cell-based; details: A549, 48 h
[16] = Antiproliferative activity against human HL7702 cells assessed as inhibition of cell growth; type: toxicity, cell-based; details: HL7702 (L02) cells
WEHI3B = test: Antiproliferative activity against mouse WEHI3B cells assessed as inhibition of cell growth measured after 48 hrs; type: functional, cell-based
A549 [17] = test: Antiproliferative activity against human A549 cells; type: functional, cell-based
MDA-MB-231 = test: Antiproliferative activity against human MDA-MB-231 cells measured after 48 hrs by MTT assay; type: functional, cell-based; details: MDA-MB-231, 48 h
[18] = Antiproliferative activity against mouse MC3T3-E1 cells; type: toxicity, cell-based
A549 [19] = test: Antiproliferative activity against human A549 cells incubated by 48 hrs by MTT assay; type: functional, cell-based; details: A549, 48 h

## CC(C)NC(=O)[C@@H]1[C@@]2(c3ccccc3)[C@H]3CCCN3[C@@]3(c4ccccc4-n4c3nc3ccccc3c4=O)[C@@]12c1ccccc1
HeLa [1]
  IC50: > 50 µM
K562 [2]
  IC50: 4.8 µM
K562 [3]
  IC50: 4.8 µM
CT26
  IC50: > 50 µM

## O=C1c2ccccc2-n2c1nc1ccccc1c2=O [TRYPTANTHRIN]
T-24 [4]
  IC50: > 150 µM
[5]
  IC50 at 48 h: 90.1 µM
MGC-803
  IC50: 70.2 µM
MCF7
  IC50: 94.2 µM
SK-OV-3
  IC50: 85.1 µM
HCT-116
  IC50: 17.5 µM
HepG2 [6]
  IC50: 90.1 µM
A549 [7]
  IC50: > 150 µM
HeLa [8]
  IC50: > 150 µM
HepG2 [9]
  IC50: 9.51 µM
PC-3
  IC50: 14.5 µM
[10]
  IC50: > 100 µM
Bel-7402
  IC50: 41.3 µM
A549/CDDP
  IC50: > 100 µM
A549 [11]
  IC50: > 100 µM
NCI/ADR-RES
  IC50: 96.4 µM
K562 [12]
  IC50: 12 µM
T-24 [13]
  IC50: > 150 µM
HepG2 [14]
  IC50: 90.1 µM
A549 [15]
  IC50: 74.7 µM
[16]
  IC50: 90.1 µM
WEHI3B
  IC50: 1.5 µM
A549 [17]
  IC50: 74.7 µM
MDA-MB-231
  IC50: > 100 µM
[18]
  IC50: > 100 µM
A549 [19]
  IC50: 8.25 µM
